Data published in PubChem BioAssay (NCI).
Where “and” joins values, the source holds several entries; their conditions need not be identical. Equal entries are not always repeated.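 Compound exposure: 48 hours, 5 concentrations, 96-well plates. Here, GI50 denotes the concentration required for 50% inhibition of growth. The concentration for full growth arrest is given as TGI.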

Tests used:
Test in all cases: NCI-60 cell line screen, 48 h
NCI-H460 lung = test system: NCI-H460 lung
OVCAR-5 ovarian = test system: OVCAR-5 ovarian
LOX IMVI melanoma = test system: LOX IMVI melanoma
NCI/ADR-RES ovarian = test system: NCI/ADR-RES ovarian
RPMI-8226 leukemia = test system: RPMI-8226 leukemia
U251 CNS = test system: U251 CNS
ACHN renal = test system: ACHN renal
MCF7 breast = test system: MCF7 breast
T-47D breast = test system: T-47D breast
SW-620 colon = test system: SW-620 colon

Row | Structure (SMILES) | GI50 (NCI-H460 lung) | TGI (NCI-H460 lung) | GI50 (OVCAR-5 ovarian) | TGI (OVCAR-5 ovarian) | GI50 (LOX IMVI melanoma) | TGI (LOX IMVI melanoma) | GI50 (NCI/ADR-RES ovarian) | TGI (NCI/ADR-RES ovarian) | GI50 (RPMI-8226 leukemia) | TGI (RPMI-8226 leukemia) | GI50 (U251 CNS) | TGI (U251 CNS) | GI50 (ACHN renal) | TGI (ACHN renal) | GI50 (MCF7 breast) | TGI (MCF7 breast) | GI50 (T-47D breast) | TGI (T-47D breast) | GI50 (SW-620 colon) | TGI (SW-620 colon)
1 | COc1ccc2c(c1)C(=O)c1c-2c(N2CCN(C(=O)CN(C)C)CC2)nc2ccccc12 | 6.01 µM | 20.6 µM | 28.8 µM | 67.3 µM | 12.3 µM | 33.6 µM | 19.7 µM | 57.1 µM | 10.7 µM | 28.6 µM | 14.9 µM | 30.6 µM | 16 µM | 33.2 µM | 12.3 µM | 27.6 µM | 16.2 µM | 34.1 µM | 10.3 µM | 26.3 µM
2 | O=C(Nc1nc(-c2ccc(Cl)cc2)cs1)c1ccc(O)c(O)c1 | 3.26 µM | 12.2 µM | 14.7 µM | 36.1 µM | 4.26 µM | 15.7 µM | 3.89 µM | 20.3 µM | 2.14 µM | 10.7 µM | 3 µM | 13.7 µM | 3.24 µM | 12.1 µM | 5.49 µM | 43.4 µM | 2.87 µM | 18.5 µM | 4.74 µM | 20.1 µM
3 | CCOC(=O)c1ccc(C(O)CC(=O)OC(C)(C)C)[nH]1 (centres undefined) | 35.9 µM | > 100 µM | 32.3 µM | > 100 µM | 25.1 µM | 86.8 µM | 41 µM | > 100 µM | > 100 µM | > 100 µM | 39.5 µM | > 100 µM | 41.5 µM | > 100 µM | 10.4 µM | 30 µM | 38.4 µM | > 100 µM | 50.1 µM | > 100 µM
4 | Cc1cc(Nc2nc(N3CCOCC3)nc3ccccc23)n[nH]1 | 4.45 µM | > 100 µM | 25.4 µM | > 100 µM | 4.35 µM | 21.2 µM | 18.2 µM | > 100 µM | 22.5 µM | > 100 µM | 4.83 µM | 21.6 µM | 2.03 µM | 18.5 µM | 9.7 µM | > 100 µM | 9.63 µM | > 100 µM | 4.81 µM | 56.8 µM
5 | COc1cc(/C=C2\C[C@H]3[C@@H]4CC=C5C[C@@H](OC(C)=O)CC[C@]5(C)[C@H]4CC[C@]3(C)[C@H]2OC(C)=O)ccc1OCCCn1ccnc1 | 9.2 µM | 22.9 µM | 12.7 µM | 33.6 µM | 7.46 µM | 14.9 µM | 11.3 µM | 28.8 µM | 0.515 µM | 1.77 µM | 6.28 µM | 12.7 µM | 8.49 µM | 15.9 µM | 9.95 µM | 20.9 µM | 16 µM | > 50 µM | 10.3 µM | > 30.1 µM
6 | Cc1cc(S(=O)(=O)/N=C(\N)n2nc(C)c(C)c2C)c(SCc2ccccc2)cc1Cl | 6.57 µM | > 100 µM | > 100 µM | > 100 µM | > 100 µM | > 100 µM | 9.22 µM | > 100 µM | 2.9 µM | > 100 µM | 7.47 µM | > 100 µM | > 100 µM | > 100 µM | 5.12 µM | > 100 µM | 3.14 µM | > 100 µM | 72.7 µM | > 100 µM
7 | CC(=O)NC(Cc1c[nH]c2ccccc12)C(=O)O (centres undefined) |  | > 100 µM |  | > 100 µM |  | > 100 µM |  | > 100 µM |  | > 100 µM |  | > 100 µM |  | > 100 µM |  | > 100 µM |  | > 100 µM |  | > 100 µM
8 | CN(C)c1ccc2[nH]c(O)c(C=Nc3ccc(S(N)(=O)=O)cc3)c2c1 | > 25 µM | > 25 µM | > 25 µM | > 25 µM | > 25 µM | > 25 µM | > 25 µM | > 25 µM | > 25 µM | > 25 µM | > 25 µM | > 25 µM | > 25 µM | > 25 µM | 19 µM | > 25 µM | > 25 µM | > 25 µM | > 21.9 µM | > 25 µM
9 | Cc1cc2c(cc1C)[n+](=O)c(C(=O)c1cccs1)c(C(F)(F)F)n2[O-] | 1.19 µM and 1.86 µM | 6.35 µM and 16.9 µM | 16.7 µM and 4.47 µM | 50 µM and 17.4 µM |  | 12.3 µM and 13.2 µM | 6.4 µM and 3.28 µM | 18.6 µM and 27.2 µM | 1.04 µM and 2.84 µM | 8.01 µM and 30.6 µM | 6.83 µM and 3.96 µM | 25.5 µM and 75.8 µM | 7.17 µM and 2.75 µM | 14.9 µM and 17.4 µM | 2.31 µM | 12.6 µM | 7.74 µM and 4.47 µM | 50 µM and 29.8 µM | 2.48 µM and 11.5 µM | 50 µM and 50.6 µM
10 | O=C1OC2(c3ccccc31)c1cc(I)c(O)c(I)c1Oc1c2cc(I)c(O)c1I |  | > 100 µM |  | > 100 µM |  | > 100 µM |  | > 100 µM |  | > 100 µM |  | > 100 µM |  | > 100 µM |  | > 100 µM |  | > 100 µM |  | > 100 µM
11 | CCSc1nc(=S)[nH]c2[nH]ncc12 | > 100 µM | > 100 µM | > 100 µM | > 100 µM | 49.3 µM | > 100 µM | > 100 µM | > 100 µM | > 100 µM | > 100 µM | > 100 µM | > 100 µM | 93.6 µM | > 100 µM | 66.8 µM | > 100 µM | 86.1 µM | > 100 µM | 97.8 µM | > 100 µM
12 | Cc1cc(-c2cc(C)c(O)c(C(C)(C)C)c2)cc(C(C)(C)C)c1O |  | 19.4 µM and 17.8 µM |  | 24.4 µM and 28.4 µM |  | 29.4 µM and 23.6 µM |  | 23.5 µM and 28.2 µM |  | 45.9 µM and 50.4 µM |  | 22.4 µM and 26.4 µM |  | 22.4 µM and 29.1 µM |  | 16.7 µM and 19.4 µM |  | 20.1 µM and 20.7 µM |  | 25.1 µM and 70 µM
13 | O=C(Nc1cccc(-c2nc3ccccc3[nH]2)c1)c1cccc(NC(=O)c2ccco2)c1 | 1.67 µM | 3.03 µM | 3.1 µM | 11.1 µM | 1.93 µM | 3.88 µM | 7.92 µM | 66 µM | 2.33 µM | 8.16 µM | 1.73 µM | 3.23 µM | 1.68 µM | 3.17 µM | 1.52 µM | 3.02 µM | 1.75 µM | 3.79 µM | 3.19 µM | 10.8 µM
14 | O=[N+]([O-])c1ccccc1/C=C/C=C1c2ccccc2-c2ccccc21 | > 100 µM | > 100 µM | > 100 µM | > 100 µM | > 100 µM | > 100 µM | > 100 µM | > 100 µM | > 100 µM | > 100 µM | > 100 µM | > 100 µM | > 100 µM | > 100 µM | 31.5 µM | > 100 µM | > 100 µM | > 100 µM | > 100 µM | > 100 µM
15 | O=C(CSc1nc2sc3c(c2c(=O)n1-c1ccccc1)CCCCC3)N/N=C/c1ccc(F)cc1 | 1.12 µM | 2.98 µM | 3.76 µM | 20.6 µM | 2.35 µM | 14.8 µM | 2.25 µM | 6.72 µM | 29.5 µM | > 100 µM | 1.93 µM | 5.31 µM | 4.76 µM | 34.6 µM | 2.91 µM | 21 µM | 2.34 µM | 24.6 µM | 3.14 µM | 33.6 µM
